Earlier results in patent publication US20180291400A1, “METHODS AND COMPOSITIONS TO INCREASE HUMAN SOMATIC CELL NUCLEAR TRANSFER (SCNT) EFFICIENCY BY REMOVING HISTONE H3-LYSINE TRIMETHYLATION, AND DERIVATION OF HUMAN NT-ESC” (CHILDREN'S MEDICAL CENTER CORPORATION, priority 2015, published 2018).

What was measured:
SUV39h2 = SUV39h2 (Homo sapiens, UniProt Q9H5I1)
Chain of SUV39h2 (Q9H5I1 whole entry): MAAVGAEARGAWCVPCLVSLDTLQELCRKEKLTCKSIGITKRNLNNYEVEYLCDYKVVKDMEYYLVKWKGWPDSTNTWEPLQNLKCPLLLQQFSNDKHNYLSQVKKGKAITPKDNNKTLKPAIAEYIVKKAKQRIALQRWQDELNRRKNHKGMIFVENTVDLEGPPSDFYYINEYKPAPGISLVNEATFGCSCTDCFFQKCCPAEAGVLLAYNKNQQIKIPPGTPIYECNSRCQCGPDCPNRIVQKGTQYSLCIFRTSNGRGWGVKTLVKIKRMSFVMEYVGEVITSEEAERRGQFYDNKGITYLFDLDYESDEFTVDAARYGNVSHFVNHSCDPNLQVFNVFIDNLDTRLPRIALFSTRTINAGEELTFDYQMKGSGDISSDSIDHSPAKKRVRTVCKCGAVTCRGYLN

| IC50 (SUV39h2) | SMILES | levels of H3K27me3 and H3K9me3 (SETDB1 H3K9me3 HMTase) |
| --- | --- | --- |
| – | Nc1nccc2c1ncn2[C@@H]1C=C(CO)[C@@H](O)[C@H]1O [DZNep, 3-Deazaneplanocin A] | reduced levels of both H3K27me3 and H3K9me3 |
| > 10 µM | COc1cc2c(NC3CCN(C(C)C)CC3)nc(C3CCCCC3)nc2cc1OCCCN1CCCC1 [UNC0638, 2-Cyclohexyl-N-(1-isopropylpiperidin-4-yl)-6-methoxy-7-(3-(pyrrolidin-1-yl)propoxy)quinazolin-4-amine] | – |
